The term MIC denotes the lowest concentration found to suppress growth.

In brackets after ≈: the same amount, converted by molar mass.

In assay [1] the test system is Escherichia coli ATCC 25922. Kind of assay: Antibacterial MIC/MBC (broth microdilution). Type of assay: cell-based. Conditions: Escherichia coli ATCC 25922. From the text:
Twelve reference bacterial strains and nine MDR clinically relevant bacterial strains were used in this study. Gram-negative bacteria comprised reference strains E. coli ATCC 25922, K. pneumoniae ATCC 13883, Salmonella enterica serovar Typhimurium CECT 443, P. aeruginosa ATCC 27853, A. baumannii ATCC 19606, C. jejuni ATCC 33560 (ATCC—American Type Culture Collection; CECT—Colección Espanola de Cultivos Tipo); clinical isolates E. coli SA/2, an extended-spectrum β-lactamase (ESBL)-producing strain and P. aeruginosa 33b, a pan-drug-resistant isolate; and animal isolates C. jejuni P5/4, a ciprofloxacin-resistant strain, C. jejuni 4432, C. jejuni 4433, C. jejuni 4448, and E. coli 2252, a COL-resistant strain [42]. Gram-positive strains included S. aureus ATCC 29213, E. faecalis ATCC 29212, S. pyogenes ATCC 19615, and environmental isolates methicillin-resistant S. aureus (MRSA) 66/1 [43], and VAN-resistant enterococci (VRE) E. faecalis B3/101 [44]. Gram-negative fish pathogens Yersinia ruckeri ATCC 29473, Listonella anguillarum ATCC 1924, and Tenacibaculum maritimum ATCC 43397 were also included.
Strains were kept in Trypto-Casein Soy agar (TSA—Biokar Diagnostics, Allone, Beauvais, France) slants and, before each assay, were sub-cultured in Mueller-Hinton agar (MHA—Biokar Diagnostics, Allone, Beauvais, France). Y. ruckeri ATCC 29473 and L. anguillarum ATCC 1924 were kept in Nutrient Agar (Condalab, Madrid, Spain) and T. maritimum ATCC 43397 was kept in TMM agar (Condalab, Madrid, Spain), and were sub-cultured in the respective culture media before each assay. For S. pyogenes ATCC 19615, CAMHB was supplemented with 3.75% lysed horse blood (LBH—Oxoid, Basingstoke, England), whereas for C. jejuni it was supplemented with 2.5% LHB. Colony-forming unit counts of the inoculum were conducted to determine the initial inoculum size (which should be approximately 5×10^5 CFU/mL). Sterility and growth controls were included in each assay. The 96-well U-shaped untreated polystyrene microtiter plates were incubated for 20 h at 37 degrees C. (42 degrees C. for C. jejuni, in a microaerophilic atmosphere) and the minimal inhibitory concentration (MIC) was determined as the lowest concentration of compound that prevented visible growth. The minimal bactericidal concentration (MBC) was determined by spreading 100 μL of the content of the wells with no visible growth on MH plates. The MBC was determined as the lowest concentration of compound that killed 99.9% of the initial inoculum after overnight incubation at 37 degrees C. Two independent assays were performed for reference and MDR strains.
An initial screening of the antibacterial activity of the compounds was performed by the Kirby-Bauer disk diffusion method, as recommended by the Clinical and Laboratory Standards Institute (CLSI). Briefly, sterile 6 mm blank paper disks (Oxoid, Basingstoke, England) impregnated with 15 μg of each compound were placed on inoculated MH agar plates. A blank disk with dimethylsulfoxide (DMSO) was used as a negative control. MH inoculated plates were incubated for 18-20 h at 37 degrees C. At the end of incubation, the inhibition halos where measured. The MIC was used to determine the antibacterial activity of each compound, in accordance with the recommendations of the CLSI. Two-fold serial dilutions of the compounds were prepared in Mueller-Hinton Broth 2 (MHB2—Sigma-Aldrich, St. Louis, MO, USA) within the concentration range of 0.062-64 μg/mL. CTX ranging between 0.031-16 μg/mL was used as a control. Sterility and growth controls were included in each assay. Purity checks and colony counts of the inoculum suspensions were also performed in order to ensure that the final inoculum density closely approximates the intended number (5×10^5 CFU/mL). The MIC was determined as the lowest concentration of compound that inhibited growth of the bacteria. The MBC was assessed by spreading 10 μL of culture collected from wells showing no visible growth on MH agar plates. […]
(In general: In broth dilution the organism is exposed to a series of concentrations in liquid medium.)

Assay [2] relates to E. coli ATCC 25922. The assay is described as follows: Membrane integrity, propidium iodide influx assay (SYTO 9/PI). Conditions: 4 μg/mL; 0, 1, 18 h. Type of assay: cell-based, Escherichia coli. Here is the method:
The influx of PI in E. coli ATCC 25922 treated with 2×MIC, MIC, and ½×MIC of compound 1 was evaluated using a commercial kit that includes fluorescent nucleic acid stains SYTO® 9 and PI. SYTO® 9 can enter cells with intact or damaged membranes, generally labeling both, whereas PI only penetrates cells with severe membrane lesions, causing a reduction in SYTO® 9 fluorescence when both dyes are present.
In these assays, COL and AMP were used as controls. COL is a polycationic antimicrobial peptide with a complex mode of action, that ultimately solubilizes the bacterial cell membrane. AMP is an aminopenicillin that inhibits cell wall synthesis by inhibiting penicillin-binding proteins. E. coli ATCC 25922 cells were treated with compound 1 and, at several time-points (0, 1, and 18 h), samples were taken, and SYTO® 9/PI ratio was determined ([FIG. 4]). The entrance of PI is reflected in a reduction of this ratio.
Briefly, E. coli ATCC 25922 colonies from overnight cultures in MHA were suspended in CAMHB to prepare an inoculum with a final concentration of approximately 5×10^5 CFU/mL. The tubes were incubated overnight at 36° C. in a water bath with shaking. Following this, the cell suspensions were centrifuged at 3500 rpm for 15 min, the supernatant was removed, the cells were carefully resuspended in fresh CAMHB and the suspension was adjusted to 0.5 McFarland. An aliquot of this suspension was then added to each tube of CAMHB alone (control) or CAMHB plus an appropriate amount of test compound. […] The tubes were incubated at 36 degrees C. in a water bath with shaking and, at pre-established time points (0, 1, and 18 h), […] aliquots were retrieved for further analysis. After the exposure time, cells were washed two times, resuspended in 0.85% NaCl, and 100 μL of each cell suspension was distributed in the wells of a microtiter plate, in triplicate. 100 μL of a mixture of 30 μM PI and 5 μM SYTO® 9 prepared in ultrapure water were added to each well, and the plates were incubated at room temperature, in the dark, for 15 min. The fluorescence intensity of the stained bacterial suspensions was determined using a microplate reader (Synergy HT, BioTek Instruments, Winooski, VT, USA) by two consecutive measurements with excitation wavelength 485 nm and emission wavelength 528 nm (SYTO® 9) or 590 nm (PI). Data were analyzed by subtracting background fluorescence from each sample, dividing the fluorescence intensity of SYTO® 9 by fluorescence intensity of PI, and the results are presented as a percentage of control. Three independent assays were performed in triplicate for each experimental condition.

The test system of assay [3] is E. coli ATCC 25922. The assay is described as follows: Enzymatic/metabolic activity, MTT assay. The conditions noted are these: 4 μg/mL; 0, 1, 18 h. Type of assay: cell-based, Escherichia coli. The method, then: To determine whether compound 1 could also affect enzymatic activity, 2-(4,5-dimethyl-2-thiazolyl)-3,5-diphenyl-2H-tetrazolium bromide (MTT) assay was performed. This assay can also be used as an indirect measure of cellular viability, as tetrazolium salts are reduced to purple formazan by metabolically active cells. E. coli ATCC 25922 cells were treated with compound 1 and COL and AMP were used as controls, as described above. Measurements were made at 0, 1, and 18 h.
Enzymatic activity was evaluated by the MTT assay, as previously described, with some modifications. Cell suspensions of E. coli ATCC 25922 were prepared as described above, as well as test conditions and controls. At each time point (0, 1, and 18 h), 500 μL aliquots were collected, centrifuged at 3500 rpm for 10 min, the supernatant was removed, and 300 μL of MTT solution (0.5 mg/mL in CAMHB, at 36 degrees C.) (Thiazolyl Blue Tetrazolium Bromide, Alfa Aesar, Ward Hill, MA, USA) were added. After a 30 min incubation at 36° C., the insoluble formazan product resulting from the conversion of MTT by metabolically active cells was solubilized with 300 μL of DMSO. 100 μL of each sample were transferred in duplicate to the wells of a microtiter plate and the extent of the reduction of MTT to formazan was quantified by measuring the absorbance at 570 nm (Thermo Scientific Multiskan® EX, Thermo Fisher Scientific, Waltham, MA, USA). Three independent assays were performed in duplicate, and results are expressed as a percentage of untreated control.
For orientation: Tetrazolium dyes change colour on reduction, which living cells bring about.

Assay [4] has as its system E. coli ATCC 25922. Kind of assay: Checkerboard synergy with erythromycin. Type of assay: cell-based, Escherichia coli. The conditions noted are these: Escherichia coli. The method, then:
The combined effect of compound 1 and CTX for E. coli SA/2, VAN for E. faecalis B3/101, COL for E. coli 2252, erythromycin for E. coli ATCC 25922, and OXA for S. aureus 66/1 was evaluated by the checkerboard method. […] The interaction between compound 1 and erythromycin was assessed for E. coli ATCC 25922. Gram-negative bacteria are intrinsically resistant to erythromycin, a macrolide that inhibits protein synthesis, and cannot penetrate the outer membrane of Gram-negative bacteria, which is impermeable to hydrophobic antibiotics. Ascertain ceragenins have been previously described to be able to enhance the efficacy of such antibiotics, this possibility was investigated for compound 1 and a FICI of 0.6 was obtained.

In the next assay the test system is C. albicans ATCC 10231. Kind of assay: Mitochondrial dehydrogenases activity, MTT reduction assay. Type of assay: cell-based, Candida albicans. The conditions noted are these: 8 μg/mL, 2 h. Here is the method: In order to determine whether compound 1 could also affect mitochondrial function, MTT reduction assay was performed. In this assay, tetrazolium salts are reduced to purple formazan derivatives by mitochondrial dehydrogenases, which can be measured spectrophotometrically and reported to mitochondrial activity and, indirectly, to cell viability. In this assay, cells were exposed to the test compounds for 2 h ([FIG. 11]). […] An increase in reactive oxygen species (ROS) has been linked to azoles activity: even though their primary mode of action is the inhibition of ergosterol synthesis, they also induce accumulation of ROS, which enhances their antifungal activity and translates into an increase in mitochondrial activity at inhibitory concentrations. […] Mitochondrial dehydrogenase activity was evaluated by the MTT assay, as previously described, with some modifications. Cell suspensions of C. albicans ATCC 10231 were prepared in the same manner as described above and, after overnight incubation at 36° C., were centrifuged at 3500 rpm for 15 min, the supernatant was removed, and the cells were carefully resuspended in 2 mL of RPMI. Test conditions and controls were the same as described above, but the time of exposure to the test compounds was 2 h. After the exposure time, cell suspensions were centrifuged at 3500 rpm for 10 min, the supernatant was removed, and 500 μL of MTT solution (0.5 mg/mL in RPMI, at 35° C.) (Thiazolyl Blue Tetrazolium Bromide, Alfa Aesar, Ward Hill, MA, USA) were added. After a 1 h incubation at 35° C., the insoluble formazan product resulting from the conversion of MTT by mitochondrial dehydrogenases of metabolically active cells was solubilized with 300 μL of DMSO. 100 μL of each sample were transferred in duplicate to a microtiter plate and the extent of the reduction of MTT to formazan was quantified by measuring the absorbance at 570 nm. Three independent assays were performed in duplicate, and the results are expressed as percentage of MTT reduction, using the untreated cells as control.

As for `CC1(C)S[C@@H]2[C@H](NC(=O)[C@H](N)c3ccccc3)C(=O)N2[C@H]1C(=O)O` [AMP], the MIC in assay [1] was 4 µg/mL (≈ 11.4 µM). For the same compound, the “reduction in SYTO 9/PI ratio vs untreated control” value in the assay with E. coli ATCC 25922 [2] is recorded as “not”. For the same compound, the “metabolic activity (MTT) vs untreated control” value with E. coli ATCC 25922 [3] is reported as “did not affect the metabolic activity”.

On to `CC[C@H]1OC(=O)[C@H](C)[C@@H](O[C@H]2C[C@@](C)(OC)[C@@H](O)[C@H](C)O2)[C@H](C)[C@@H](O[C@@H]2O[C@H](C)C[C@H](N(C)C)[C@H]2O)[C@](C)(O)C[C@@H](C)C(=O)[C@H](C)[C@@H](O)[C@]1(C)O` [erythromycin, reference compound], for which the MIC in the assay with E. coli ATCC 25922 [4] (ATCC25922, E. coli ATCC 25922, erythromycin alone) is 16 µg/mL; with E. coli ATCC 25922 [4] (ATCC25922, E. coli ATCC 25922, with 16 μg/mL of compound 1 (½×MIC)), 0.125 µg/mL.

For the compound `C[C@@H](c1ncncc1F)[C@](O)(Cn1cncn1)c1ccc(F)cc1F` [VRC, voriconazole], the “mitochondrial activity (MTT reduction) vs untreated control” value in the assay with C. albicans ATCC 10231 was “identical effect”.

Source of the values: patent publication US20250002450A1, “CATIONIC STEROID COMPOUNDS, METHOD OF OBTAINING THEREOF, FORMULATIONS COMPRISING THEREOF AND THEIR USES” (UNIVERSIDADE DO PORTO, priority 2021, published 2025).
